For data set [1], the target named is T1, rat GPR14 (U-II receptor) (Rattus norvegicus, UniProt P49684).
T1 construct: expressed in transfected cells
T1 sequence (P49684 1-386): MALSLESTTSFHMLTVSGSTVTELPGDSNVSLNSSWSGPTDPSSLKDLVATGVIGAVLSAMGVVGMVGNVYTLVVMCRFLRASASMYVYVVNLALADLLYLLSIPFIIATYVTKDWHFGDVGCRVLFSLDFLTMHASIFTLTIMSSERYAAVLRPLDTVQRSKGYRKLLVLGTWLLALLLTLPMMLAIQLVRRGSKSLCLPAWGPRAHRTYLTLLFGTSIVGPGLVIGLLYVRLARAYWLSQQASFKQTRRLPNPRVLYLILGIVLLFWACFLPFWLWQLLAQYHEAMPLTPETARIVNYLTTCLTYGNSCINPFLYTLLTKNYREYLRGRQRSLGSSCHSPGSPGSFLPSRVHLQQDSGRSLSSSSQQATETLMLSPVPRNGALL
In words: Calcium flux assay (FLIPR). The data set is classed as cell-based. The conditions noted are these: Inhibition of acetyl-cyclic[Cys-Phe-Trp-Lys-(2-Nal)-Cys]-NH2 (1 nM) induced Ca2+ mobilization (FLIPR) in CHO cells transfected with rat UII receptor; 5 min incubation. The procedure, abridged: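 Stable CHO cell line expressing cloned rat U-II receptor, seeded 24 h before assay, loaded with FLIPR calcium dye in HBSS/20 mM HEPES/0.1% BSA/2.5 mM probenecid, pH 7.4, for 1 hr at 37° C. Calcium mobilization read at room temperature (23° C.).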

For a further data set, the target named is T2, Human UII receptors (Homo sapiens, UniProt Q9UKP6).
T2 construct: host or cells: Human Skeletal Muscle Myoblasts (HSMM), intact adherent cells
T2 sequence (Q9UKP6 1-389): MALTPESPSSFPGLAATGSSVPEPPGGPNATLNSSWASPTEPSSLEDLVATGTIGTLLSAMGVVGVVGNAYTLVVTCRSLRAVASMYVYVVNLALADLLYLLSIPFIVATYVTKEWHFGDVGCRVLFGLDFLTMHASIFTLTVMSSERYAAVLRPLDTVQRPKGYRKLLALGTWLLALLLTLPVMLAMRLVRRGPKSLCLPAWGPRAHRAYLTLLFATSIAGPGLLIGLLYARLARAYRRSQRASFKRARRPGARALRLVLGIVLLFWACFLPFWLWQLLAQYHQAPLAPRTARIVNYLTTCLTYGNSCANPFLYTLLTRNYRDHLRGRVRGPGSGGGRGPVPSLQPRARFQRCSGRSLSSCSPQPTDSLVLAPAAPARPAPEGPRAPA
The data set can be described thus: Human radioligand binding assay, (125I)-U-II on HSMM. How it is done:
Human Skeletal Muscle Myoblasts (HSMM) were obtained from Cambrex, and were cultured according to manufacturer's instruction. Cell viability was examined by trypan blue exclusion. Cells at less than 4 passages were used in all studies. […] The binding medium used was Dulbecco's modified Eagle's medium (DMEM) containing 2 mg/ml BSA and 25 mM HEPES (pH 7.4). […] The cells were washed 4× with the binding medium and solubilized in 1% SDS and 0.5 N NaOH. Radioactivity was quantified by gamma counting.

Data set [2] relates to streptozotocin-induced diabetic rats. The conditions noted are these: long-term treatment; cited from earlier work.
Data set [3] relates to isolated arterial rings. The conditions noted are these: rats; read-out: EC50, contraction of isolated arterial rings; cited from earlier work.
Data set [4] concerns isolated arterial rings. The conditions noted are these: humans; read-out: EC50, contraction of isolated arterial rings; cited from earlier work.
Data set [5] has as its target T1, rat GPR14 (U-II receptor). The conditions noted are these: agonist; calcium mobilization; read-out: FLIPR EC50; cited from earlier work. A general note: Calcium assays in cells follow changes in intracellular calcium, usually with a dye or a luminescent sensor.
Data set [6] deals with T3, (Rattus norvegicus, UniProt P49684).
T3 sequence (P49684 1-386): T1 sequence (P49684 1-386)
The conditions noted are these: read-out: rU-II Ki; cited from earlier work.

Where [7] appears, read: 0.150 nM (125I)-U-II, intact Human Skeletal Muscle Myoblasts, 3 hrs, 25° C., read-out: Ki.

Where two headings read alike, the source gives them in different places.

With `CN(C)C(=O)C1(c2ccc(Cl)cc2)CCN(CCN2C(=O)CCc3ccccc32)CC1`, the melting point – broadly, the temperature, or range, at which the solid turns liquid – lay in the range of 243 to 245 °C.
As for `O=C(NCCCCCNC(=O)c1cc(Cl)ccc1C1CCN(CCN2C(=O)COc3ccccc32)CC1)OCc1ccccc1` [Cpd 75, [5-(5-chloro-2-{1-[2-(3-oxo-2,3-dihydro-benzo[1,4]oxazin-4-yl)-ethyl]-piperidin-4-yl}-benzoylamino)-pentyl]-carbamic acid benzyl ester], the IC50 (as a rule, the point on the concentration scale where inhibition reaches its midpoint) in data set [1] is 40 nM. Also, the Ki (usually a dissociation constant, usually derived from enzyme kinetics or from competition with a known ligand) at Human UII receptors (setting [7]) was 34 nM.
Consider `CC(C)(C)CC(=O)NCCCCCNC(=O)c1cc(Cl)ccc1C1CCN(CCN2C(=O)COc3ccccc32)CC1` [Cpd 76, 5-chloro-N-[5-(3,3-dimethyl-butyrylamino)-pentyl]-2-{1-[2-(3-oxo-2,3-dihydro-benzo[1,4]oxazin-4-yl)-ethyl]-piperidin-4-yl}-benzamide], for which the IC50 in data set [1] came to 150 nM. On Human UII receptors, this compound showed a Ki of 43 nM.
For `O=C(NCCCCCNC(=O)c1cc(Cl)ccc1C1CCN(CCN2C(=O)COc3ccccc32)CC1)NCc1ccccc1` [Cpd 77, N-[5-(3-benzyl-ureido)-pentyl]-5-chloro-2-{1-[2-(3-oxo-2,3-dihydro-benzo[1,4]oxazin-4-yl)-ethyl]-piperidin-4-yl}-benzamide], in data set [1], the IC50 amounted to 27 nM. Also, the Ki on Human UII receptors (setting [7]) was found to be 37 nM.
Take `O=C(NCCCCCNS(=O)(=O)Cc1ccccc1)c1cc(Cl)ccc1C1CCN(CCN2C(=O)COc3ccccc32)CC1` [Cpd 78, 5-chloro-2-{1-[2-(3-oxo-2,3-dihydro-benzo[1,4]oxazin-4-yl)-ethyl]-piperidin-4-yl}-N-(5-phenylmethanesulfonylamino-pentyl)-benzamide]: the IC50 in data set [1] worked out at 100 nM. In addition, the Ki on Human UII receptors (setting [7]) was 40 nM.
For the compound `CC(C)(C)OC(=O)NCCOCCNC(=O)c1cc(Cl)ccc1C1CCN(CCN2C(=O)COc3ccccc32)CC1` [Cpd 79, {2-[2-(5-chloro-2-{1-[2-(3-oxo-2,3-dihydro-benzo[1,4]oxazin-4-yl)-ethyl]-piperidin-4-yl}-benzoylamino)-ethoxy]-ethyl}-carbamic acid tert-butyl ester], the IC50 in data set [1] amounted to 37 nM. The same compound yielded an inhibitory constant (Ki) at Human UII receptors of 53 nM.
As for `O=C(NCCCCCNC(=O)c1cc(Cl)ccc1C1CCN(CCN2C(=O)COc3ccccc32)CC1)NCCc1ccccc1` [Cpd 82, 5-chloro-2-{1-[2-(3-oxo-2,3-dihydro-benzo[1,4]oxazin-4-yl)-ethyl]-piperidin-4-yl}-N-[5-(3-phenethyl-ureido)-pentyl]-benzamide], the IC50 in data set [1] turned out to be 170 nM. In addition, the Ki on Human UII receptors (setting [7]) came out at 120 nM.
On the same counts, the results for `CC(C)(C)OC(=O)NCCCCCNC(=O)c1cc(Cl)ccc1C1CCN(CCN2C(=O)CCc3ccccc32)CC1` [Cpd 83, [5-(5-chloro-2-{1-[2-(2-oxo-3,4-dihydro-2H-quinolin-1-yl)-ethyl]-piperidin-4-yl}-benzoylamino)-pentyl]-carbamic acid tert-butyl ester] are 360 nM and 220 nM.
`CC(CN1C(=O)COc2ccccc21)N1CCC(c2ccc(Cl)cc2C(=O)NCC2CCN(S(=O)(=O)Cc3ccccc3)CC2)CC1` (stereo not drawn) [Cpd 84, 5-chloro-2-{1-[1-methyl-2-(3-oxo-2,3-dihydro-benzo[1,4]oxazin-4-yl)-ethyl]-piperidin-4-yl}-N-(1-phenylmethanesulfonyl-piperidin-4-ylmethyl)-benzamide]: the IC50 in data set [1] is 2000 nM. Moreover, on Human UII receptors (setting [7]), the Ki is 210 nM.
For `CC(C)(C)OC(=O)N1CCN(CCNC(=O)c2cc(Cl)ccc2C2=CC3CCC(C2)N3CCN2C(=O)COc3ccccc32)CC1` (stereo not drawn) [Cpd 94, 4-[2-(5-chloro-2-{8-[2-(3-oxo-2,3-dihydro-benzo[1,4]oxazin-4-yl)-ethyl]-8-aza-bicyclo[3.2.1]oct-2-en-3-yl}-benzoylamino)-ethyl]-piperazine-1-carboxylic acid tert-butyl ester], the IC50 in data set [1] was 290 nM. In addition, the Ki on Human UII receptors (setting [7]) is 1900 nM.
Turning to `CC(C)(C)OC(=O)NCCCCCNC(=O)c1cc(Cl)ccc1C1=CC2CCC(C1)N2CCN1C(=O)COc2ccccc21` (stereo not drawn) [Cpd 95, [5-(5-chloro-2-{8-[2-(3-oxo-2,3-dihydro-benzo[1,4]oxazin-4-yl)-ethyl]-8-aza-bicyclo[3.2.1]oct-2-en-3-yl}-benzoylamino)-pentyl]-carbamic acid tert-butyl ester], the half-inhibitory concentration (IC50) in data set [1] turned out to be 640 nM. Also, the Ki on Human UII receptors (setting [7]) came to 1300 nM.
With `CC(C)(C)OC(=O)NCCCCCNC(=O)c1ccccc1[C@@H]1C[C@H]2CC[C@@H](C1)N2CCN1C(=O)COc2ccccc21` [Cpd 98, [5-(2-{8-[2-(3-oxo-2,3-dihydro-benzo[1,4]oxazin-4-yl)-ethyl]-8-aza-bicyclo[3.2.1]oct-3-yl}-benzoylamino)-pentyl]-carbamic acid tert-butyl ester], the IC50 in data set [1] is 1600 nM. At Human UII receptors (setting [7]), the Ki was determined as 1400 nM.
For `CC(C)(C)OC(=O)N1CCN(CCNC(=O)c2ccccc2C2CC3CCC(C2)N3CCN2C(=O)COc3ccccc32)CC1` (stereo not drawn) [Cpd 99, 4-[2-(2-{8-[2-(3-oxo-2,3-dihydro-benzo[1,4]oxazin-4-yl)-ethyl]-8-aza-bicyclo[3.2.1]oct-3-yl}-benzoylamino)-ethyl]-piperazine-1-carboxylic acid tert-butyl ester], the IC50 in data set [1] was determined as 1100 nM. The Ki at Human UII receptors (setting [7]) was 1400 nM.
On the same counts, the results for `CC(C)(C)OC(=O)NCCCCCNC(=O)c1cc(Cl)ccc1C1CC2CCC(C1)N2CCN1C(=O)COc2ccccc21` (stereo not drawn) [Cpd 100, [5-(5-chloro-2-{8-[2-(3-oxo-2,3-dihydro-benzo[1,4]oxazin-4-yl)-ethyl]-8-aza-bicyclo[3.2.1]oct-3-yl}-benzoylamino)-pentyl]-carbamic acid tert-butyl ester] are 450 nM and 1200 nM.
As for `Cc1cc(NC(=O)NCCN2CCC(O)(Cc3ccccc3)CC2)c2ccccc2n1` [palosuran], in data set [2], the “development of proteinuria and renal damage” value is “delayed the development of proteinuria and renal damage”; the “glycemia, glycosylated hemoglobin, and serum lipids” value was “slowed the increase in glycemia, glycosylated hemoglobin, and serum lipids”; the insulin result is listed as “increased insulin”; the renal blood flow entry is reported as “increased renal blood flow”. Moreover, the survival result in data set [2] is “improved survival”.
As for “AGTAD-cyclo(CFWKYC)-V [Goby U-II, Urotensin-II isolated from the urophysis of the goby fish as a 12-mer]”, the EC50 in the data set on isolated arterial rings [3] and in the data set on isolated arterial rings [4] was less than 1 nM in each case.
As to “acetyl-cyclic[Cys-Phe-Trp-Lys-(2-Nal)-Cys]-NH2 [(Ac)-CFWK(2-NaI)C—NH2, agonist cyclic peptide used to induce Ca2+ mobilization in the FLIPR assay]”, the EC50 (as a rule, the concentration needed to bring the measured effect to its halfway point) in data set [5] is 0.54 ± 0.2 nM. In data set [6], the Ki was 0.12 ± 0.05 nM.

The values above are taken from US8759342B2, “Benzo[1,4]oxazin-3-one, benzo[1,4]thiazin-3-one and quinolin-2-one urotensin II receptor antagonists” (Janssen Pharmaceutica NV, priority 2006, dated 2014).
